{"source": "paper PMC11040670", "about": "“Mechanistic and Kinetic Insights into Cellular Uptake of Biomimetic Dinitrosyl Iron Complexes and Intracellular Delivery of NO for Activation of Cytoprotective HO-1” (JACS Au, 2024)", "origin": "cited, not measured here", "key": {"[1]": {"parameters": "method as in doi:10.1021/j100627a005", "conditions": "cited from earlier work"}, "Prx 1": {"tested_on": "Prx 1", "parameters": "method as in earlier work", "conditions": "generated [(NO)2Fe(SGS)(SCys-Prx1)]n–, phosphate buffer (pH 7.4), normoxia; ref SI 4; cited from earlier work"}}}
{"compound": "O=C(O)CCS", "note": "[HSCH2CH2COOH]", "values": [{"measurement": "pKa for the carboxylic acid group", "setting": "[1]", "result": 4.3}]}
{"compound": "[(NO)2Fe(SGS)2]n– and [(NO)2Fe(-SGS)2Fe(NO)2]m– [DNDGIC]", "values": [{"measurement": "k, second-order rate constant", "setting": "Prx 1", "result": "7.0 ± 0.4", "unit": "M⁻¹ s⁻¹"}]}
